Data as given in the supplement of paper PMC10307832.

Key:
Assay in all cases: relative viability (nuclei count vs DMSO), 5 days (fraction); higher = more cells survive
Dabrafenib + Trametinib = compound: CC(C)(C)c1nc(-c2cccc(NS(=O)(=O)c3c(F)cccc3F)c2F)c(-c2ccnc(N)n2)s1 [Dabrafenib] + CC(=O)Nc1cccc(-n2c(=O)n(C3CC3)c(=O)c3c(Nc4ccc(I)cc4F)n(C)c(=O)c(C)c32)c1 [Trametinib] (partner 0.02 µM)
How it was run: (§1)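 Dosing by pin tool came one day after lung cancer cell lines were seeded in 1536-well plates, using either one drug or a fixed anchor-drug dose plus five library-drug doses (not always all listed) in √10 steps. After 5 days, nuclei were counted on 4× images. Relative viability is treated-well nuclei count divided by vehicle-well nuclei count, and values are medians of duplicate plates.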

Dabrafenib + Pictilisib = compound: CC(C)(C)c1nc(-c2cccc(NS(=O)(=O)c3c(F)cccc3F)c2F)c(-c2ccnc(N)n2)s1 [Dabrafenib] + CS(=O)(=O)N1CCN(Cc2cc3nc(-c4cccc5[nH]ncc45)nc(N4CCOCC4)c3s2)CC1 [Pictilisib] (partner 1 µM)
How it was run: as §1

Dabrafenib + AZD7762 = compound: CC(C)(C)c1nc(-c2cccc(NS(=O)(=O)c3c(F)cccc3F)c2F)c(-c2ccnc(N)n2)s1 [Dabrafenib] + NC(=O)Nc1cc(-c2cccc(F)c2)sc1C(=O)N[C@H]1CCCNC1 [AZD7762] (partner 0.2 µM)
How it was run: as §1

VX-702 + Phenformin = compound: NC(=O)c1ccc(N(C(N)=O)c2c(F)cccc2F)nc1-c1ccc(F)cc1F [VX-702] + N=C(N)NC(=N)NCCc1ccccc1 [Phenformin] (partner 250 µM)
How it was run: as §1

Row | Cell Line | relative viability (Dabrafenib + Trametinib; first compound 0.009487 µM) | relative viability (Dabrafenib + Trametinib; first compound 0.03 µM) | relative viability (Dabrafenib + Trametinib; first compound 0.09487 µM) | relative viability (Dabrafenib + Trametinib; first compound 0.3 µM) | relative viability (Dabrafenib + Pictilisib; first compound 0.009487 µM) | relative viability (Dabrafenib + Pictilisib; first compound 0.03 µM) | relative viability (Dabrafenib + Pictilisib; first compound 0.09487 µM) | relative viability (Dabrafenib + Pictilisib; first compound 0.3 µM) | relative viability (Dabrafenib + AZD7762; first compound 0.009487 µM) | relative viability (Dabrafenib + AZD7762; first compound 0.03 µM) | relative viability (Dabrafenib + AZD7762; first compound 0.09487 µM) | relative viability (Dabrafenib + AZD7762; first compound 0.3 µM) | relative viability (VX-702 + Phenformin; first compound 0.02 µM) | relative viability (VX-702 + Phenformin; first compound 0.2 µM) | relative viability (VX-702 + Phenformin; first compound 0.6325 µM) | relative viability (VX-702 + Phenformin; first compound 2 µM) | relative viability (Dabrafenib + Trametinib; first compound 0.003 µM) | relative viability (Dabrafenib + Pictilisib; first compound 0.003 µM) | relative viability (Dabrafenib + AZD7762; first compound 0.003 µM)
1 | NCI-H1734 | 0.718 | 0.627 | 0.721 | 0.727 | 0.522 | 0.38 | 0.424 | 0.399 | 0.587 | 0.5 | 0.452 | 0.378 | 0.403 | 0.355 | 0.369 | 0.298 |  |  | 
2 | NCI-H1944 | 0.426 | 0.403 | 0.401 | 0.404 | 0.343 | 0.284 | 0.438 | 0.368 | 0.537 | 0.397 | 0.457 | 0.555 | 0.228 | 0.202 | 0.2 | 0.161 | 0.409 | 0.36 | 0.219
3 | LOU-NH91 | 0.774 | 0.792 | 0.782 | 0.837 | 0.549 | 0.555 | 0.548 | 0.566 | 0.768 | 0.734 | 0.725 | 0.827 | 0.796 | 0.819 | 0.807 | 0.504 |  |  | 
4 | NCI-H1792 | 0.484 | 0.405 | 0.439 | 0.474 | 0.307 | 0.237 | 0.311 | 0.242 | 0.723 | 0.434 | 0.34 | 0.485 | 0.314 | 0.303 | 0.45 | 0.237 |  |  | 
5 | HCC-15 | 0.437 | 0.378 | 0.374 | 0.506 | 0.851 | 0.654 | 0.797 | 0.725 | 1.11 | 1.09 | 1.16 | 1.09 | 0.536 | 0.441 | 0.525 | 0.557 | 0.354 | 0.595 | 1.17
6 | NCI-H727 | 0.353 |  | 0.417 | 0.354 | 0.476 | 0.36 | 0.444 | 0.401 | 0.459 |  | 0.492 | 0.669 | 0.618 | 0.607 | 0.568 | 0.499 | 0.355 |  | 0.472
7 | EPLC-272H | 0.262 | 0.312 | 0.349 | 0.329 | 0.212 | 0.288 | 0.414 | 0.369 | 0.283 | 0.174 | 0.207 | 0.155 | 0.303 | 0.302 | 0.381 | 0.26 |  |  | 
8 | NCI-H1793 | 0.416 |  | 0.451 | 0.412 | 0.313 | 0.329 | 0.392 | 0.323 | 0.489 |  | 0.493 | 0.434 | 0.284 | 0.331 | 0.415 | 0.358 |  | 0.366 | 
9 | LXF-289 | 0.653 | 0.711 | 0.672 | 0.733 | 0.809 | 0.671 | 0.853 | 0.842 | 1.13 | 1.22 | 1.06 | 1.29 | 0.538 | 0.534 | 0.5 | 0.527 | 0.677 | 0.656 | 0.162
10 | HARA | 0.805 | 0.832 | 0.721 | 1 | 0.629 | 0.325 | 0.399 | 0.605 | 0.392 | 0.46 | 0.368 | 0.312 | 0.433 | 0.42 | 0.599 | 0.569 |  | 0.327 | 
11 | LCLC-97TM1 | 0.225 | 0.193 | 0.21 | 0.205 | 0.206 | 0.213 |  | 0.149 | 0.239 | 0.25 | 0.129 | 0.224 | 0.439 | 0.434 | 0.43 | 0.482 |  |  | 
